Experimental findings from article PMC6010128, “Structure–activity relationship investigation of tertiary amine derivatives of cinnamic acid as acetylcholinesterase and butyrylcholinesterase inhibitors: compared with that of phenylpropionic acid, sorbic acid and hexanoic acid” (Journal of Enzyme Inhibition and Medicinal Chemistry, 2018) are described below.

As a reminder, the pKa is the pH at which an ionisable group is half protonated. One may read the Ki as a dissociation constant, usually derived from enzyme kinetics or from competition with a known ligand. In general, IC50 refers to the concentration that gives 50% inhibition. For orientation: logP means the decadic logarithm of the partition coefficient of the neutral form, usually between octanol and water.

Bounds are passed on as bounds.

Data set [1] in a line: pKa by pH-titration method. To be noted: read-out: pKa. The format is physicochemical. As to the method:
pKa is determined by pH-titration method according to the report. The titration curve E vs. VT was recorded and pKa value was calculated.

Data set [2] has as its target T1, AChE (Rattus norvegicus, UniProt P37136). Kind of data set: Kinetic study of AChE inhibition (Lineweaver–Burk). The class given is biochemical. On the procedure:
Kinetic characterization of AChE was performed by a reported method. Compound 6g was added into the assay solution and preincubated with the enzyme at 30 °C, followed by the addition of 100 μL acetylthiocholine iodide including five concentrations. The assay solution contained 100 μL compound 6g, 100 μL DTNB, 2.79 ml 0.1 mol/l Na2HPO4/NaH2PO4 buffer (pH 7.4). Kinetic profile of the hydrolysis of acetylthiocholine iodide catalyzed by AChE was determined by the UV–Vis spectrometry at 412 nm. The parallel control experiment was carried out without compound 6g in the mixture.
Compound 6g was selected for further kinetic study since it had the strongest inhibiting activity against AChE among new synthesized compounds.
Fig. 2 Lineaweaver–Burk plot for the inhibition of AChE by compound 6g
Table 2 Kinetic parameters of AChE inhibited by compound 6g
C Michaelis-Menten Km Vmax Ki Ki’
(µmol/L) equation (mmol/L) (ΔAmin-1) (µmol//L) (µmol/L)
(1 picture or pasted object on this page, not shown here)

For the next data set, the target named is BChE (Rattus norvegicus, UniProt Q9JKC1). Description: biochemical. Particulars: rat serum BChE, Mean ± SD, triplicate. The arrangement: species or system Sprague–Dawley rat.
BChE, sequence (Q9JKC1 24-597): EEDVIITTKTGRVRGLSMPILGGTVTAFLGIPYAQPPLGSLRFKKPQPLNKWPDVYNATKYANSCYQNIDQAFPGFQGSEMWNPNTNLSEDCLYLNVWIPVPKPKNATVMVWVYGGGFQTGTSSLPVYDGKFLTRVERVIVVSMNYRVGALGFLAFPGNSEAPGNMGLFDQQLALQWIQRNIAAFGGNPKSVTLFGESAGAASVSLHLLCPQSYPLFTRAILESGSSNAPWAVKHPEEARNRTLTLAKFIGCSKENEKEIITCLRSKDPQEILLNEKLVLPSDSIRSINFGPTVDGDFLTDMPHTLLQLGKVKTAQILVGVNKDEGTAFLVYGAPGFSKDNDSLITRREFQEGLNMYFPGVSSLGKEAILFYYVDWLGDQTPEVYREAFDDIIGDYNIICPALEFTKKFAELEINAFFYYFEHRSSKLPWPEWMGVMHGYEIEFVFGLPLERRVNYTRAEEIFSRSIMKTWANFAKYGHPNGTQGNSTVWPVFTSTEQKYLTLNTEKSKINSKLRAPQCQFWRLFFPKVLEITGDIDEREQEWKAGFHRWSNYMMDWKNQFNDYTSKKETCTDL
Data set [3] has as its target T1, AChE. Kind of data set: biochemical. Particulars: for Selectivity for AChE: IC50 (BChE)/IC50 (AChE); for IC50: rat brain AChE, Mean ± SD, triplicate.
Data set [4] is described as follows: Log P by shake flask method. Particulars: octanol / PBS pH = 7.4, shake flask. The format is physicochemical. On the procedure:
Log P is defined as the logarithm of octanol–water partition coefficient. […] Ultraviolet spectrophotometry was applied to determine the concentration of compounds. Log p values were calculated based on the data in triplicate.

T1 sequence (P37136 32-614): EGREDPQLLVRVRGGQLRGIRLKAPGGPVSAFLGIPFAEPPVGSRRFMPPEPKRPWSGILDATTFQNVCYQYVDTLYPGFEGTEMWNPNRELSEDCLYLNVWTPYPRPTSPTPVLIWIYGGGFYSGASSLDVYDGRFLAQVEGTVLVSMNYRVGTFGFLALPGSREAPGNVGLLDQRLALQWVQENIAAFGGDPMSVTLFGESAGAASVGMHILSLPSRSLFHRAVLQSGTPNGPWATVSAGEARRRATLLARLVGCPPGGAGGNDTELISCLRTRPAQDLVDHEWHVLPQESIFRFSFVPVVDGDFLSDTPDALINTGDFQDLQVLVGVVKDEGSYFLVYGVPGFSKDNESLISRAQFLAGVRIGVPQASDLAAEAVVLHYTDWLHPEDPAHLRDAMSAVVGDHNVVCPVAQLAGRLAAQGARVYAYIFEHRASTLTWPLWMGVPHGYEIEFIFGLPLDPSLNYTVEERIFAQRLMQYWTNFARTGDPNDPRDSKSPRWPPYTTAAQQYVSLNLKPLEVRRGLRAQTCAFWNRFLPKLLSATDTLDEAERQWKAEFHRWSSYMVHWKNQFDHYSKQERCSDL

For `O=C(C=Cc1ccccc1)Nc1ccc(OCCN2CCCC2)cc1` [Compound 6g], the pKa in data set [1] came out at 6.74. The values for the Vmax on AChE [2] (AChE with 0.72 µmol/L compound 6g), on AChE [2] (AChE with 1.43 µmol/L compound 6g) and on AChE [2] (AChE with 2.86 µmol/L compound 6g) were 0.023 ΔAmin-1, 0.021 ΔAmin-1 and 0.019 ΔAmin-1, respectively. Also, at AChE [2] (AChE, acetylthiocholine iodide substrate), the “non-competitive constant (Ki′)” value was 2.14 µM. Further, the Ki on AChE [2] (AChE, acetylthiocholine iodide substrate, read-out: competitive inhibit constant (Ki)) came out at 7.27 µM. Moreover, on AChE [2] (Lineweaver–Burk analysis), the “type of inhibition against AChE” value is on record as “mixed-type inhibition”. The figures for the IC50 against BChE and at AChE [3] were 104 ± 1.34 µM and 3.64 ± 0.28 µM, respectively. Besides, at AChE [3], the “Selectivity for AChE” value was determined as 28.6. For the same molecule, the logP in data set [4] is 1.33.
On to `O=C(C=Cc1ccccc1)Nc1cccc(OCCN2CCCC2)c1` [Compound 5g], for which the pKa in data set [1] was 7.28. The IC50 was determined as 12.9 ± 1.18 µM on BChE and 8.52 ± 1.23 µM at AChE [3]. For the same molecule, the “Selectivity for AChE” value on AChE [3] is 1.51. Also, in data set [4], the logP turned out to be 2.28.
The like results for `CCCCCC(=O)Nc1cccc(OCCN(C)C)c1` [Compound 23d] were, in that order, 6.52, 7.89 ± 0.89 µM, 60.6 ± 2.18 µM, 0.13 and 0.37.
The like results for `C/C=C/C=C/C(=O)Nc1ccc(OCCN(C)C)cc1` [Compound 18d] were, in that order, 7.21, 222 ± 8.63 µM, 12.6 ± 0.89 µM, 17.5 and 1.79.
The like results for `C/C=C/C=C/C(=O)Nc1cccc(OCCN(CC)CC)c1` [Compound 17e] were, in that order, 7.58, 79.5 ± 1.43 µM, 98.7 ± 1.89 µM, 0.81 and 1.72.
On to `CCCCCC(=O)Nc1cccc(OCCN2CCCCC2)c1` [Compound 23f], for which the pKa in data set [1] was found to be 7.32. Besides, it took 0.22 ± 0.02 µM to reach half-maximal inhibition at BChE (IC50). Also, on AChE [3], the “Selectivity for AChE” value is given as 0.002 and the IC50 came out at 76.7 ± 3.17 µM. For the same molecule, the logP in data set [4] is 1.55.
The like results for `C/C=C/C=C/C(=O)Nc1cccc(OCCN(C)C)c1` [Compound 17d] were, in that order, 7.23, 50.43 ± 0.46 µM, 0.96, 52.47 ± 0.39 µM and 0.99.
Regarding `CCCCCC(=O)Nc1ccccc1OCCN1CCCC1` [Compound 22g], the pKa in data set [1] came out at 7.16. This molecule also yielded a 50% inhibitory concentration (IC50) at BChE of 18.6 ± 0.32 µM. On AChE [3], the “Selectivity for AChE” value is listed as less than 0.04 and the IC50 was greater than 500 µM. The logP in data set [4] was 1.11.
For the molecule `CCN(CC)CCOc1ccccc1NC(=O)CCc1ccccc1` [Compound 10e], the pKa in data set [1] worked out at 7.23. Besides, the IC50 against BChE is 40.1 ± 1.29 µM; at AChE [3], greater than 500 µM. In data set [4], the logP is 3.22.
`CCCCCC(=O)Nc1ccc(OCCN(C)C)cc1` [Compound 24d]: in data set [1], the pKa was determined as 7.16. Besides, the IC50 against BChE was found to be 33.8 ± 4.21 µM. At AChE [3], the “Selectivity for AChE” value turned out to be 0.81 and the IC50 was 41.7 ± 2.89 µM. The molecule further gave a logP in data set [4] of 0.72.
For the molecule `CCCCCC(=O)Nc1ccc(OCCN(CC)CC)cc1` [Compound 24e], the pKa in data set [1] was 7.48. This molecule had an IC50 on BChE of 9.9 ± 1.28 µM. In addition, at AChE [3], the “Selectivity for AChE” value is less than 0.02 and the IC50 is greater than 500 µM. Further, in data set [4], the logP turned out to be 1.1.
On to `O=C(C=Cc1ccccc1)Nc1ccccc1OCCN1CCCCC1` [Compound 4f], for which the pKa in data set [1] is 6.85. This molecule also gave an IC50 against BChE of 1.16 ± 0.22 µM. Moreover, on AChE [3], the “Selectivity for AChE” value is recorded as 0.01 and the IC50 came to 141 ± 7.01 µM. Also, the logP in data set [4] came out at 2.17.
Take `CCCCCC(=O)Nc1ccccc1OCCN1CCCCC1` [Compound 22f]: in data set [1], the pKa was 6.99. The IC50 against BChE came to 9.04 ± 0.27 µM; against AChE [3], 325 ± 7.65 µM. The “Selectivity for AChE” value at AChE [3] came to 0.03. Further, the logP in data set [4] amounted to 1.11.
